What was measured:
[1] = tested on: saphenous nerve afferents; experiment: Saphenous nerve afferent recordings after topical application to receptive field; format: in vivo, rat
From the text: Antisense and mis-sense oligonucleotides were 22-mers with phosphorothioate bonds at the last two positions at 5′ and 3′ ends (MWG Biotech, Ebersberg, Germany). Antisense extended from base −10 to base +12 relative to the start of the open reading frame for the rat TRPM8 gene: 5′ C*T*CGAAGGACATCTTGCCGT*G*G 3′, where * represents phosphorothioate linkages. Mis-sense was designed with 4 inversions of C/G or A/T as appropriate at residues 3, 11, 14 and 22, preserving overall G/C content. BLAST searches of both oligonucleotides indicated no significant complementarity to any known gene sequence. 14-day or 7-day osmotic minipumps (for CCI experiments or naïve electrophysiology experiments respectively—Alzet Minipump, models 2002, 2001; Charles River, UK) containing oligonucleotides (1 μg/μl in sterile saline) were connected to canulae inserted under the dura of the spinal cord to level L5/6 and produced a predicted infusion rate of 0.5 μl/h. CCI surgery was performed at the same time as minipump implantation. Sensory tests were carried out to assess the time-course of behavioural sensitisation in animals which had also undergone a CCI injury. Icilin was applied topically rather than intrathecally so as to prevent any interference with the infusion canula. Peripheral nerve recordings and tissue harvesting were carried out after an interval of 4-5 days to allow time for protein knockdown.
Peripheral: Recordings of saphenous (sensory) nerve were made in naïve animals (n=7) to assess the effects of topical icilin on primary afferents. In addition, recordings were carried out on animals which had undergone TRPM8 antisense or mis-sense treatment beginning 4-5 days previously. Rats were anaesthetised (with 0.6 ml 25% urethane/100 g, i.p.) and the saphenous nerve was exposed and dissected from its associated vein and artery. Further dissection under liquid paraffin enabled identification of afferent preparations comprising a small number of fibres. The conduction velocity of single identified afferent fibres was determined using bipolar electrodes and the peripheral stimulus technique^[43]. Following isolation of preparations, icilin (200 μM in water with 0.2% DMF), (−)-menthol (4 mM in 25% ethanol) resiniferatoxin (1 mM in ethanol) or vehicle alone were applied to the hindlimb receptive fields and neuronal responses recorded using the Chart programme (version 3.6). Central: Recordings of spinal dorsal horn neurons were made in CCI animals, as described previously^[39]. Following halothane induction, the jugular vein and trachea were canulated and intravenous anaesthetic delivered: α-chloralose ([…], Fisher) and urethane ([…], Sigma), with small supplementary doses of α-chloralose as required throughout the experiment. Core body temperature was maintained at 37-38° C. by means of a thermostatically controlled heated blanket. The animal was placed in a stereotaxic frame, and the thoracolumbar spinal column was supported using three pairs of swan-necked clamps. A laminectomy was performed at L2-L5, and agar (2% in saline at 37° C.) was delivered over exposed cord to increase mechanical stability. Above the recording region the agar and spinal cord dura were removed and liquid paraffin poured into the pool. Extracellular recordings were made from single multireceptive neurons in laminae I-IV through the centre barrel of a seven-barrelled glass microelectrode filled with 4M NaCl (tip-diameter […], DC resistance 5-8 MΩ). The receptive fields of hair-follicle innervated neurons on the distal hindlimb were identified by an innocuous brush stimulus^[39]. Icilin (200 μM in water with 0.2% DMF) was applied peripherally to the receptive field of individual recorded neurons, and the effect on neuronal response to a rotating brush was recorded and analysed using Spike2 programme (Version 3.2, CED). […]

naïve rats = experiment: Intrathecal application in naïve rats, behavioural reflex testing (PWL, PWT); format: in vivo, rat; settings: icilin 10 nmol, (−)-menthol 200 nmol, data not shown
Method: Thermal sensitivity was assessed by measuring paw withdrawal latency (PWL, s) in response to a noxious thermal stimulus (Hargreaves' thermal stimulator, Linton Instrumentation, Diss, UK) directed to the hindpaw mid-plantar glabrous surface. Mechanical sensitivity was recorded as the paw withdrawal threshold (PWT, mN/mm^2) to calibrated von Frey filaments (Stoelting, Ill., US), as previously described^[39]. Sensitivity to noxious cold was assessed by placing animals in a waterbath with an aluminium floor containing 1 cm deep 4° C. water and counting the time the paw was held suspended over a 20 s period.
The following drugs were applied intrathecally in a 50 μl volume of saline-based vehicle at 37° C.: icilin (2.5-200 μM in saline with 0.2% dimethylformamide, DMF), LY 341495 (100 μM in saline), UBP 1112 (200 μM in saline), 2R,4R-APDC ((2R, 4R)-4-aminopyrrolidine-2,4-dicarboxylate), 300 μM in saline), ACPT-III ((1R,3R,4S)-1-aminocyclopentane-1,3,4-tricarboxylic acid), 3 mM in saline), AP-4, ((L-(1)-2-amino-4-phosphonobutyric acid), 3 mM in saline), naloxone (0.5 mM in saline), NMDA (75 μM in saline) and ACPC (1-aminocyclopropanecarboxylic acid, 15 μM in saline) (Tocris Cookson, Bristol, UK), (−)-menthol (1R,2S,5R-(−)-menthol, 4 mM in saline), cinnamaldehyde (1.5 mM in saline) and Ruthenium Red (5 μM in saline) (Sigma-Aldrich Co. Ltd, UK) and allicin (0.5 mM in saline with 0.5% DMF) and diallyl disulphide (DADS, 1 mM in saline with 0.5% DMF) (LKT Laboratories Inc., St Paul, Minn., USA). Drugs were injected into the L5/6 intrathecal space under brief halothane anaesthesia, using a 25-gauge needle microsyringe (BD Biosciences, Oxford, UK), as described previously^[39] in animals that were at peak levels of behavioural sensitisation. Behavioural reflex testing commenced 15 min following injection to allow recovery from anaesthesia^[40,41,42] and continued every 5 min thereafter until readings returned to baseline levels (n=6 in each case). We, and others^[40,41,42] find complete recovery from anaesthetic by 15 minutes. All appropriate controls were carried out to eliminate the possibility of effects due to vehicle or to injection procedure.
The TRPM8 channel activators, icilin and (−)-menthol were tested in CCI and naïve animals. The effects of icilin were additionally assessed in animals with CFA-induced inflammation or with lysolecithin-induced demyelination. Icilin was also co-administered with the μ-opioid receptor antagonist naloxone, the Group II metabotropic glutamate receptor (mGluR) antagonist, LY 341495, or the Group III mGluR antagonist, UBP 1112. The effects of these antagonists alone as well as effects of the Group II mGluR agonist, 2R,4R-APDC and the Group III mGluR agonists, ACPT-III and AP-4, were assessed in CCI animals. The TRPA1 channel activator, cinnamaldehyde, alone and with icilin, was tested in CCI animals and in naïve animals. Further TRPA1 channel activators, allicin and diallyl disulphide were assessed in naïve animals. Both icilin and cinnamaldehyde effects in CCI animals were also investigated in the additional presence of Ruthenium Red.

[2] = antisense-treated animals, topical icilin 200 μM, (−)-menthol 4 mM, resiniferatoxin 1 mM
[3] = mis-sense-treated animals, topical icilin 200 μM, (−)-menthol 4 mM
[4] = mis-sense-treated animals, topical icilin 200 μM, (−)-menthol 4 mM, resiniferatoxin 1 mM

| SMILES | firing frequency after drug [1, 2] [Hz] | increase in firing frequency ([1]; antisense-treated animals, topical icilin 200 μM, resiniferatoxin 1 mM) | recorded slowly conducting fibres activated ([1]; antisense-treated naïve animals, icilin 200 μM topical, 3 out of 34) [%] | recorded fine afferents with significant increase in firing frequency ([1]; icilin 200 μM to receptive field, naïve animals, 40 out of 185) [%] | effect on large myelinated mechanoreceptors ([1]; icilin 200 μM, conduction velocities 6.8-15 ms^−1, n=43) | mean time to peak effect ([1]; icilin 200 μM, naïve animals) [min] | firing frequency after drug ([1]; icilin 200 μM, naïve animals, baseline 4.5±2.5 Hz) [Hz] | mean increase in firing frequency ([1]; icilin 200 μM, naïve animals, from baseline of 4.5±2.5 Hz) [fold] | recorded fibres activated [1, 3] [%] | firing frequency after drug [1, 4] [Hz] | increase in firing frequency [1, 4] | effect on reflex responses in naïve animals (naïve rats) | activation of afferents ([1]; antisense-treated animals, (−)-menthol 4 mM, 28 identified afferents recorded) |
| --- | --- | --- | --- | --- | --- | --- | --- | --- | --- | --- | --- | --- | --- |
| O=C1NC(c2cccc([N+](=O)[O-])c2)=CCN1c1ccccc1O [icilin, 1-(2′-hydroxyphenyl)-4-(3″-nitrophenyl)-1,2,3,6-tetrahydropyrimidin-2-one] | 12.7±0.6 | approximately 2 fold | 8.8 | 21.6 | unaffected | 3.3 ± 0.5 | 31.6 | 7 | 25 | 23.1±3.2 | 7 fold | without effect |  |
| CC(C)[C@@H]1CC[C@@H](C)C[C@H]1O [(−)-menthol, 1R,2S,5R-(−)-menthol] | 4.8±1.9 |  |  |  |  |  |  |  | 20 | 38.9±7.6 | approximately 8 fold | without effect | no obviously activated afferents |

— patent US20100137344A1, “INDUCTION OF ANALGESIA IN NEUROPATHIC PAIN” (University Court of the University of Edinburgh, priority 2006, published 2010)
